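48-hour exposure; five concentrations; linearly interpolated endpoints. Abbreviation: GI50, concentration required for 50% inhibition of growth. TGI marks complete inhibition of growth.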 *1 amine or outer side, *2 acyl side, *3 side chain or, on linkers, in order; H or OH if unused. Where a SMILES comes first, the peptide text is derived from it. [ ]: non-standard residue; d: D form. ξ: configuration not given here. X21 = CC[C@@H](C)C(N[*:1])C(=O)[*:2]; ξR = N=C(N)NCCCC(N)C(=O)O; ξI = CCC(C)C(N)C(=O)O; ξL = CC(C)CC(N)C(=O)O; ξK = NCCCCC(N)C(=O)O; ξV = CC(C)C(N)C(=O)O; ξA = CC(N)C(=O)O
Assays:
Assay in all cases: DTP human tumour cell line panel, 48 h
[1] = system: K-562 leukemia
[2] = system: A549 NSCLC
[3] = system: HOP-62 NSCLC
[4] = system: MDA-MB-435
[5] = system: PC-3 prostate
[6] = system: UACC-62 melanoma
[7] = system: SF-295 CNS
[8] = system: SNB-75 CNS

| SMILES | GI50 [1] [µM] | TGI [1] [µM] | GI50 [2] [µM] | TGI [2] [µM] | GI50 [3] [µM] | TGI [3] [µM] | GI50 [4] [µM] | TGI [4] [µM] | GI50 [5] [µM] | TGI [5] [µM] | GI50 [6] [µM] | TGI [6] [µM] | GI50 [7] [µM] | TGI [7] [µM] | GI50 [8] [µM] | TGI [8] [µM] |
| --- | --- | --- | --- | --- | --- | --- | --- | --- | --- | --- | --- | --- | --- | --- | --- | --- |
| COc1cc(/C=C2\C(=O)Nc3cccc(Cl)c32)cc(OC)c1OC | 29.2 | > 100 | > 100 | > 100 | 32.6 | > 100 | > 100 | > 100 | > 100 | > 100 | > 100 | > 100 | > 100 | > 100 | 21.9 | 84 |
| COc1ccc2c(c1)C1(C(=O)N2)C(C#N)=C(c2ccccc2)Nc2c1c(-c1ccccc1)nn2-c1ccccc1 (stereo not drawn) | 4.6 | 22.9 | 2.49 | 5.55 | 2.28 | 7.07 | 2.16 | 5.29 | 1.98 | 3.67 | 5.36 | 18.2 | 8.86 | 21.1 | 1.39 | 3.43 |
| O=C1CCS/C(=N\S(=O)(=O)c2ccc(N3N=C4c5ccccc5CC4C3c3cccs3)cc2)N1C(=O)c1ccccc1 (stereo not drawn) | 26.4 | > 100 | 10.6 | 24.3 | 31.1 | > 100 | 22.7 | 53.4 | 29.2 | > 100 | 6.37 | 28 | 32.7 | > 100 | > 100 | > 100 |
| O=C1NN(c2ccccc2)C(=O)/C1=C/c1ccc(Br)o1 | 14.1 | > 77.7 | 12 | 44.4 |  | 21.4 | 6.65 | 23.8 | 6.9 | 26.3 | 11.8 | 24.3 |  | 2.56 | 24.3 | 58.6 |
| C[C@H](N)C(=O)N1C[C@H](CCCB(O)O)[C@](N)(C(=O)O)C1 | > 100 | > 100 | > 100 | > 100 | > 100 | > 100 | > 100 | > 100 | > 100 | > 100 | > 100 | > 100 | > 100 | > 100 | > 100 | > 100 |
| CNCCCNCCCN1C(=O)c2ccc3c4c(ccc(c24)C1=O)C(=O)N(CCCNCc1ccccc1OC)C3=O | 0.408 | 2.9 | 0.577 | 4.97 | 1.24 | 4.44 | 1.07 | 2.91 | 1.6 | 10.1 | 1.52 | 3.51 | 0.894 | 2.39 | 1.11 | 2.51 |
| NC(=O)c1ccc2nc3c(n2c1)C(=O)C(=O)c1ccccc1-3 | 0.677 | 3.73 | 2.18 | 4.48 | 1.39 | 2.8 | 0.186 | 0.336 | 1.04 | 2.78 | 0.545 | 1.77 | 1.67 | 3.07 | 1.56 | 2.92 |
| Cc1nc(C(N)=S)sc1C(=O)C/C(=N/N)C(=O)Nc1ccc(Cl)cc1 |  | > 100 |  | > 100 |  | > 100 |  | > 100 |  | > 100 |  | > 100 |  | > 100 |  | > 100 |
| CCC(C)C1NC(=O)C(CC(C)C)NC(=O)C(C)NC(=O)C(C(C)C)NC(=O)C(CCCCN)NC(=O)C(CC(C)C)NC(=O)C(C(C)C)NC(=O)[C@H](C)NC(=O)C(C(C)CC)NC(=O)C(CCCN=C(N)N)NC(=O)C(CCCCN)NC(=O)C(CCCN=C(N)N)NC(=O)C(CCCCN)NC(=O)C([C@H](C)CC)NC(=O)C(CCCCN)NC1=O (stereo partly drawn) (cyclo(A[ξV][ξL][ξK][ξV][ξA][ξL][ξI][ξK][X21][ξK][ξR][ξK][ξR][ξI])) | 0.783 | 3.79 | 1.48 | 4.41 | 1.7 | 4.18 | 1.51 | 3.33 | 0.701 | 4.85 | 1.26 | 2.85 | 1.04 | 2.52 | 1.34 | 3.24 |
| CCOC(=O)CSc1[nH]c(NC(=S)Nc2ccccc2)c(C(N)=O)c1C(N)=O |  | > 10 |  | > 10 |  | > 10 |  | > 10 |  | > 10 |  | > 10 |  | > 10 |  | > 10 |
| Cc1cc(=O)oc2cc(OS(C)(=O)=O)ccc12 |  | > 100 |  | > 100 |  | > 100 |  | > 100 |  | > 100 |  | > 100 |  | > 100 |  | > 100 |
| NC(CC1=CCC=CC1)C(=O)O (stereo not drawn) |  | > 100 |  | > 100 |  | > 100 |  | > 100 |  | > 100 |  | > 100 |  | > 100 |  | > 100 |

Source: PubChem BioAssay (NCI)
